ChEMBL document CHEMBL1201862, “PubChem BioAssay data set” (2004)
Activity calls are given as the source filed them.

Columns and labels:
[1] = microbe, parasite or virus in culture; format: functional; settings: Mycobacterium tuberculosis
Cytochrome P450 2C9 = Cytochrome P450 2C9 (Homo sapiens, UniProt P11712)
[2] = growth suppression of PTEN-null colon cells, dose response, cell-based, HCT116 PTEN knockout (AID 1047); format: functional;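 note: HCT116 colon tumor cells with PTEN knocked out; cells exposed to compound for 60 hours before readout; potency for loss of cell viability measured by luminescence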
[3] = growth suppression of beta-catenin-knockout colon cells, dose response, cell-based, HCT116, human colon tumor (AID 1045); format: functional;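 note: HCT116 colon tumor cells with beta catenin knocked out; cells exposed to compound for 60 hours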
[4] = molecular target: T1, Calpain-2 catalytic subunit (Sus scrofa, UniProt P43367); test: pig calpain II inhibitor potency, dose response, biochemical, fluorogenic peptide substrate (AID 1420); format: functional
T1 sequence (P43367 whole entry): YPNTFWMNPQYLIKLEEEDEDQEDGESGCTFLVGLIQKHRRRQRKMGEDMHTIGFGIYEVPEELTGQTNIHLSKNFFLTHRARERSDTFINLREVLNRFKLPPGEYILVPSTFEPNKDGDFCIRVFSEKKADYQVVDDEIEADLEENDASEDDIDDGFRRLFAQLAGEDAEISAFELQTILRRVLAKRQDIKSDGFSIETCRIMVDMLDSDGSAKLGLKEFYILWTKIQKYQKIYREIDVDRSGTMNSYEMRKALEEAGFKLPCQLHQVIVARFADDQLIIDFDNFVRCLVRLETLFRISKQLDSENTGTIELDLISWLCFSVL

Cytochrome P450 2D6 = Cytochrome P450 2D6 (Homo sapiens, UniProt P10635);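 note: CYP2D6 member of a cytochrome P450 panel assay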
Chain of Cytochrome P450 2D6 (P10635 whole entry): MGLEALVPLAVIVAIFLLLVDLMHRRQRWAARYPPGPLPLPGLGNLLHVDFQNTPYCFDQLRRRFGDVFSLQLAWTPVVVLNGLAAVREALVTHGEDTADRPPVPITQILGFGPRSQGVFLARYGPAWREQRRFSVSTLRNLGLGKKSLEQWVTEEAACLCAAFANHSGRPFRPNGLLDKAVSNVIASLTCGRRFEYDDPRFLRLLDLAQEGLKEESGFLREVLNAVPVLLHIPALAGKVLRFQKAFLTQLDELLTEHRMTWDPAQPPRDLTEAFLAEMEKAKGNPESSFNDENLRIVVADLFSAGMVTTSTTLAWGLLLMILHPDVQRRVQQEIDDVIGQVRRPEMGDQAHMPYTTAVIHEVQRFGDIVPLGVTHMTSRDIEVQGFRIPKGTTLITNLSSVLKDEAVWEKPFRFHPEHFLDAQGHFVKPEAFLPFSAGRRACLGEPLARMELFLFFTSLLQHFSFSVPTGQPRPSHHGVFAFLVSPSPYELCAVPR

[5] = control 3'UTR Renilla luciferase suppression, dose response, counter-screen for Shn3 inhibitor project, cell-based, Clone20-Shn3RL, cherry-picked (AID 624133); format: functional
[6] = Shn3 3'UTR reporter inhibitors, dose response, cell-based, Clone20 osteoblasts, firefly luciferase, cherry-picked (AID 624132); format: functional;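 note: firefly luciferase luminescence from reporter carrying the Shn3 3'UTR in osteoblasts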
[7] = molecular target: T2, Heat shock factor protein 1 (Mus musculus, UniProt P38532); test: inhibition of MG132-induced HSE-luciferase signal, confirmation, cell-based, NIH3T3, luminescence, dose retest (AID 2382); format: functional;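 note: NIH3T3 fibroblasts with HSF1-driven luciferase reporter stressed by proteasome inhibitor MG132; luminescence from HSF1-driven luciferase expression after 8 hours of MG132 stress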
T2 sequence (P38532 whole entry): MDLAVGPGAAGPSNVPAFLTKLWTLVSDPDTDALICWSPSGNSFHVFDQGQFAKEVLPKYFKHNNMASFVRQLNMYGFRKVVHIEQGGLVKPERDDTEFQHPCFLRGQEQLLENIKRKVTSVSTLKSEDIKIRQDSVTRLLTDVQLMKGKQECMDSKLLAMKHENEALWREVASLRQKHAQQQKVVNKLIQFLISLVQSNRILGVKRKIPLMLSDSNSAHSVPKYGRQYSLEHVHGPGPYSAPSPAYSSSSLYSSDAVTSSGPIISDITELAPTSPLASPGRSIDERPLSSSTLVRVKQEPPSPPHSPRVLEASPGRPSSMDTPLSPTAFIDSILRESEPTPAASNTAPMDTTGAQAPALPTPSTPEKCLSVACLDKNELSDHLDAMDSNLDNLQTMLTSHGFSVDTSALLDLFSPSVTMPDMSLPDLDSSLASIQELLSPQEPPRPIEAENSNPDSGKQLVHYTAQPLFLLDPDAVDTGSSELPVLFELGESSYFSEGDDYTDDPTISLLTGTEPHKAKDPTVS

[8] = HepG2 cell cytotoxicity, dose response, cytotoxicity control for Shn3 inhibitor project, CellTiter-Glo, cherry-picked (AID 624134); format: functional, cell-based
Prothrombin = Prothrombin (Homo sapiens, UniProt P00734); test: Thrombin 1536 HTS Dose Response Confirmation. [Related pubchem assays: 1046 (Thrombin 1536 HTS; hits were confirmed in this assay)]; format: functional
cells [9] = format: functional, cell-based
Nonstructural protein 1 = Nonstructural protein 1 (Influenza A virus, UniProt Q194T2); format: functional, Influenza A virus (A/California/07/2009(H1N1))
Chain of Nonstructural protein 1 (Q194T2 whole entry): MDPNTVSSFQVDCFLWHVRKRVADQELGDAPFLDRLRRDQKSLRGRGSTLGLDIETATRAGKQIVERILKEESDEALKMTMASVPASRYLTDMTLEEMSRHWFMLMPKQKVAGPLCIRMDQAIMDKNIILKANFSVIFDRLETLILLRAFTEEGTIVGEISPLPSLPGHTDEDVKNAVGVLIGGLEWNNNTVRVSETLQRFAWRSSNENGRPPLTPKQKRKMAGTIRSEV

INS1 = test: beta cell apoptosis inhibitors, cytokine rescue, dose response, luminescence, retest (AID 449756); format: functional, cell-based; settings: Rattus norvegicus;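 note: cell death triggered by IL-1 beta plus TNF-alpha plus IFN-gamma mixture; protective hits raise ATP signal compared with cytokine alone wells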
cells [10] = format: functional, cell-based; remark: listed apart in the source
Streptokinase A = molecular target: T3, Streptokinase A (Streptococcus pyogenes serotype M1, UniProt P10520); test: S. pyogenes streptokinase expression inhibitors, potency, dose response, plasminogen activation absorbance, OD405 (AID 1914); format: functional, Streptococcus pyogenes M1 GAS;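 note: secreted streptokinase activity via plasminogen activation per viability signal from cell pellet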
T3 sequence (P10520 whole entry): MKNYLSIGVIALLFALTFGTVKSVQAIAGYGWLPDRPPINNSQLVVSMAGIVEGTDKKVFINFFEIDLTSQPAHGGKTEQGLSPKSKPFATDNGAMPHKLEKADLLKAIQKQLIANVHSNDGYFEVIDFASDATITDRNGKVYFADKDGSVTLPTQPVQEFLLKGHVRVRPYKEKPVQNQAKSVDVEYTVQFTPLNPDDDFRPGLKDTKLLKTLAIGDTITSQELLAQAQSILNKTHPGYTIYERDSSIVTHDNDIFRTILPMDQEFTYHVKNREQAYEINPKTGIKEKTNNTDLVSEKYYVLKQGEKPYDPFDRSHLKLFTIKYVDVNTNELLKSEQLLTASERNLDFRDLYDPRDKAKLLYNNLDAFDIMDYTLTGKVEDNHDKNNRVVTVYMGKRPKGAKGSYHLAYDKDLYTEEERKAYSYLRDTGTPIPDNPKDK

Streptococcus = test: Group A Streptococcus viability loss, dose response, counter-screen for streptokinase expression inhibitor project, luminescence, BacTiterGlo (AID 1915); format: functional, organism-based;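 note: potency for reduction of bacterial viability or growth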
[11] = test system: Streptococcus sp. 'group A'; test: growth inhibition of control SK(-) GAS strain, dose response, counter-screen for streptokinase expression inhibitor project, luminescence, kanamycin, BacTiterGlo, confirmation (AID 1900); format: functional, organism-based
[12] = molecular target: T2, Heat shock factor protein 1; test: HSF1 potentiators in luciferase reporter cells, confirmation, cell-based, NIH3T3, luminescence, dose retest (AID 435004); format: functional;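 note: stress induced by proteasome inhibitor MG132 added 30 min after compound; luciferase reporter driven by HSF1 response element in NIH3T3 cells; actives raise luminescence as potentiators of the MG132 stress response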
[13] = HEp-2 cell cytotoxicity, dose response, cytotoxicity control for RSV inhibitor project, HTS (AID 2410); format: functional; settings: human respiratory syncytial virus
Large T antigen = Large T antigen (Simian virus 40, UniProt P03070); format: functional, Betapolyomavirus macacae;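 note: Confirmatory-stage PubChem screen for compounds that inhibit SV40 T antigen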
Chain of Large T antigen (P03070 whole entry): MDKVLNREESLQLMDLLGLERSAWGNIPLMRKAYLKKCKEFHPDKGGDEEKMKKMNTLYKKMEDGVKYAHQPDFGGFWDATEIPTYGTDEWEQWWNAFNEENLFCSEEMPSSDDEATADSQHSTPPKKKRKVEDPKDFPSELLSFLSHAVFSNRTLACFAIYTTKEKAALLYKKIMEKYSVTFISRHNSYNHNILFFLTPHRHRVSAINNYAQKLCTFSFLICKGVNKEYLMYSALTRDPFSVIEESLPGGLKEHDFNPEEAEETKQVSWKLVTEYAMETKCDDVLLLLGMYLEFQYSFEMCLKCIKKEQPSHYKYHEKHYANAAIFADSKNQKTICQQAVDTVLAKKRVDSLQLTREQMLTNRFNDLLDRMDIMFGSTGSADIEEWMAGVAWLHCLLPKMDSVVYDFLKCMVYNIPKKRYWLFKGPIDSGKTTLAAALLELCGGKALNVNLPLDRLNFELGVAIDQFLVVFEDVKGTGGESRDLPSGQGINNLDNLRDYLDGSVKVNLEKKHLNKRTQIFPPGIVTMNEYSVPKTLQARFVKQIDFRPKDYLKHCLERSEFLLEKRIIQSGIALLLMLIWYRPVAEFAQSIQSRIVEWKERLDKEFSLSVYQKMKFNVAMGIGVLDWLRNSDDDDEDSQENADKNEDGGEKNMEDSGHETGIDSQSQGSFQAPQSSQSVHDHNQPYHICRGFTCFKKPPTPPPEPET

[14] = molecular target: T4, Polyadenylate-binding protein 1 (Homo sapiens, UniProt P11940); test: PABP1 MLLE–PAM2 interaction inhibitors, dose response, miRNA deadenylation inhibitor project, biochemical, fluorescence polarization, Cy5-PAM2 peptide, secondary (AID 602260); format: functional; settings: read-out: IC50_Mean
T4 sequence (P11940 whole entry): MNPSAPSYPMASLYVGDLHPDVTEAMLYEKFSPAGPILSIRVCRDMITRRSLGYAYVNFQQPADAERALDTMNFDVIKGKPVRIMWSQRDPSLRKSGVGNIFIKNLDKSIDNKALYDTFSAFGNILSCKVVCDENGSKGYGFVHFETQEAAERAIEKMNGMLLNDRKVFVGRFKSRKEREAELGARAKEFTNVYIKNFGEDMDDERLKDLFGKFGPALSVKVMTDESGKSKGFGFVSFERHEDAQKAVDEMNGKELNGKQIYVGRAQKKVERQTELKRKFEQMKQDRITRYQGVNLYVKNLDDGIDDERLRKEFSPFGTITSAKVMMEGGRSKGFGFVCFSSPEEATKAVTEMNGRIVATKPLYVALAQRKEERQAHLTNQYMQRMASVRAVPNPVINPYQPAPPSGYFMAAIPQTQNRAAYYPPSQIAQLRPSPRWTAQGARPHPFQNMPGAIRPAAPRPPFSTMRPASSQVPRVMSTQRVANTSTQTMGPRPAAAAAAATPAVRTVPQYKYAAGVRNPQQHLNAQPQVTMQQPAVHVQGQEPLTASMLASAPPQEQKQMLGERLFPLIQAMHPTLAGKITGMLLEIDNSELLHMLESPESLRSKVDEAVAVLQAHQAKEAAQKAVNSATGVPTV

[15] = molecular target: T4, Polyadenylate-binding protein 1; test: PABP1 MLLE–PAM2 binding inhibitor potency, dose response, biochemical, fluorescence polarization, FITC-PAM2 peptide (AID 602259); format: functional; settings: read-out: IC50_Mean
[16] = Luminescence Cell-Based Dose Retest to Confirm Inhibitors of Cancer Stem Cells. [Related pubchem assays (depositor defined):AID2717, AID2721]; format: functional; settings: Homo sapiens
Cytochrome P450 1A2 = molecular target: T5, Cytochrome P450 1A2 (Homo sapiens, UniProt P05177);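 note: PubChem cytochrome P450 panel assay, CYP1A2 panel member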
T5 sequence (P05177 whole entry): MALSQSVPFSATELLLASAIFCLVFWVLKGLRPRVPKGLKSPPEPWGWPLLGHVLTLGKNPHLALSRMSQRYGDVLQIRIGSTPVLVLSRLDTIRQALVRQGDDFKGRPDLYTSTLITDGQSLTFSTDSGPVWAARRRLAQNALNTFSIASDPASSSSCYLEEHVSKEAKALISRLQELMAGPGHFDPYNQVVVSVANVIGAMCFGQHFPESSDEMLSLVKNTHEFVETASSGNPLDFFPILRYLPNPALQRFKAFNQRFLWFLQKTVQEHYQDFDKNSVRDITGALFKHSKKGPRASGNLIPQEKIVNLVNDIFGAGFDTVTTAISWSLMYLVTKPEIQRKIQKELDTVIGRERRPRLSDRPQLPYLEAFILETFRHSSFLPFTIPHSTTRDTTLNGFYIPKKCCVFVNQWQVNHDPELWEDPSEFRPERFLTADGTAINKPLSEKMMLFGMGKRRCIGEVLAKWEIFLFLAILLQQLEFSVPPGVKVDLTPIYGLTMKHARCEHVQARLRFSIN

Chain of Cytochrome P450 2C9 (P11712 whole entry): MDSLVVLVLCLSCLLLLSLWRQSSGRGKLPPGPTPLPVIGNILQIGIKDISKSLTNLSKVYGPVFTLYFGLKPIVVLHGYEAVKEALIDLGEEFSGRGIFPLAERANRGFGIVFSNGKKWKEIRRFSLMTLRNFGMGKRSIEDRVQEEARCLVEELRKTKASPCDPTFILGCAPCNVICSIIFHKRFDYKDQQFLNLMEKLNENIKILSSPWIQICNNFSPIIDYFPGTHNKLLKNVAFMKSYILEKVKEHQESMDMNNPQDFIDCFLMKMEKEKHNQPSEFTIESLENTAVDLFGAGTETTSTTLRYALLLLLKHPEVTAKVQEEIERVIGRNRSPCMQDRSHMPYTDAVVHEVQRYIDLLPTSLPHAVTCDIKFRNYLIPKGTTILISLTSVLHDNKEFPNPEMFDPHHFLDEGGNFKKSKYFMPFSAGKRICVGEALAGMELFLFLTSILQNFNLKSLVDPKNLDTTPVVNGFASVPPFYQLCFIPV

O=S1(=O)N(CCN2CC=C(c3c[nH]c4cc(F)ccc34)CC2)c2cccc3c2N1CCC3
CC50 [1]: > 40 µM (active) | AC50 (Cytochrome P450 2C9): 25.1 µM (inconclusive)

N#Cc1ccc(/C=C/C(=O)c2ccco2)cc1
EC50 [2]: 16.6 µM (active) | EC50 [3]: 17.2 µM (active)

Cc1cccc(N/C=C/C(=C(C#N)C#N)N(C)C)c1
IC50 [4]: 15.6 µM (not active)

O=C(c1ccco1)N1CCC2(CC1)CN(Cc1ccncc1)C2
AC50 (Cytochrome P450 2D6): 12.6 µM (inconclusive)

O=C(CCN1C(=O)c2ccccc2C1=O)NC(=S)Nc1cccc(Cl)c1
AC50 (Cytochrome P450 2D6): 0.0447 µM (inconclusive)

CCOC(=O)c1c(CSCc2ccccc2)oc2ccc(O)c(CN(C)C)c12
AC50 [5]: 10.7 µM (active) | AC50 [6]: 9.79 µM (active) | EC50 [7]: > 195 µM (not active) | AC50 [8]: 22.2 µM (active)

COc1cccc([C@@H]2Oc3ccc(OC)cc3C(=O)[C@H]2O)c1
AC50 (Cytochrome P450 2D6): 3.16 µM (inconclusive)

Cc1ccc(S(=O)(=O)CC(=O)Nc2c(C)n(C)n(-c3ccccc3)c2=O)cc1
IC50 (Prothrombin): 3.58 µM (active)

COc1cnc(-c2ccccn2)nc1N(C)C
EC50 (cells [9]): 8.34 µM (active) | IC50 (Nonstructural protein 1): 1.92 µM (active) | AC50 (INS1): 8.4 µM (active) | EC50 (cells [10]): 214 µM (active)

CCn1c(-c2ccccc2Cl)nn(CC(=O)Nc2cc(Cl)ccc2Cl)c1=S
AC50 (Cytochrome P450 2C9): 25.1 µM (inconclusive) | AC50 (Cytochrome P450 2D6): 25.1 µM (inconclusive)

O=C1OC(Nc2ccc(F)c([N+](=O)[O-])c2)c2ccccc21 (stereo unspecified)
IC50 (Prothrombin): > 50 µM (not active)

Clc1ccccc1-c1nccc(NCc2ccccc2)n1
AC50 (Cytochrome P450 2D6): 39.8 µM (inconclusive)

O=c1c2c3c(sc2nc(N2CCNCC2)n1-c1cccc(Cl)c1)CCCCC3
CC50 [1]: 13.6 µM (active)

CCCC(=O)n1nc(-c2ccco2)nc1N
IC50 (Prothrombin): 1.28 µM (active)

COc1ccc(C(C)C)cc1S(=O)(=O)Nc1ccncc1
IC50 (Prothrombin): > 50 µM (not active)

O=C1c2cccc3c([N+](=O)[O-])ccc(c23)C(=O)N1O
CC50 [1]: 17.8 µM (active) | EC50 (Streptokinase A): > 150 µM (not active) | EC50 (Streptococcus): 15.8 µM (active) | EC50 [11]: 0.999 µM (active) | EC50 [12]: 244 µM (active)

CCC(=O)Nc1ccc(C(=O)CSc2nc3ccccc3cc2CC)cc1
IC50 (Prothrombin): > 50 µM (not active)

Cn1nc(-c2ccc(Cl)cc2)c2cc(C(=O)N3CCN(c4ccccn4)CC3)sc21
AC50 [5]: 28.6 µM (active) | AC50 [6]: 4.02 µM (active) | CC50 [13]: 3.7 µM (active) | AC50 [8]: > 70 µM (inactive)

CCC(=O)Nc1ccc(N2CCN(CC)CC2)c(Cl)c1
AC50 (Cytochrome P450 2D6): 0.0447 µM (inconclusive)

O=C(COC(=O)C12CC3CC(CC(O)(C3)C1)C2)NCCc1ccc(Cl)cc1
IC50 (Prothrombin): > 50 µM (not active)

COc1ccc(-n2c(=O)c3c4c(sc3n3c(=S)[nH]nc23)CCC4)cc1
IC50 (Large T antigen): 20.4 µM (active)

CC(C)Cn1c(N)c(C(=O)COC(=O)c2ccc(F)cc2)c(=O)n(C)c1=O
IC50 [4]: 4.8 µM (not active)

O=C(Nc1ccc(N2CCN(C(=O)c3ccco3)CC2)cc1)C(c1ccccc1)c1ccccc1
CC50 [1]: > 40 µM (active)

CC(=O)c1ccc(NC(=O)c2noc(C(C)C)c2[N+](=O)[O-])cc1
IC50 [4]: 3.66 µM (active)

O=C1CC(c2ccccc2)Cc2nc(N3CCc4ccccc4C3)ncc21 (stereo unspecified)
IC50 [4]: 6.43 µM (not active) | IC50 [14]: > 66 µM (inactive) | IC50 [15]: > 66 µM (inactive)

CN(C)c1ccc(-c2cncnc2NCc2cccnc2)cc1
AC50 (Cytochrome P450 2C9): 0.501 µM (inconclusive) | AC50 (Cytochrome P450 2D6): 12.6 µM (inconclusive)

CC(Cc1ccccc1Sc1ccc(O)cc1)N(C)C (stereo unspecified)
IC50 (Large T antigen): 71.9 µM (active)

CCCC[C@@H](CN[C@H](C)CNC)NCC1CCC(C(C)(C)C)CC1 (stereo partly specified)
CC50 [1]: 12.7 µM (active) | AC50 [16]: 6.55 µM (active) | AC50 (INS1): 6.4 µM (active)

O=C(c1csnn1)N1CCC2(CC1)CCN(c1ccccn1)CC2
AC50 (Cytochrome P450 1A2): 25.1 µM (inconclusive) | AC50 (Cytochrome P450 2C9): 20 µM (inconclusive) | AC50 (Cytochrome P450 2D6): 20 µM (inconclusive)

CCC(=C(c1ccc(OC)cc1)c1ccc(OC)cc1)c1cn(CC(O)CN2CCN(C)CC2)c2ccccc12 (stereo unspecified)
EC50 [2]: 7.95 µM (active) | EC50 [3]: 6.34 µM (active)

CC(=O)c1c(O)n(Nc2nc(C)cc(C)n2)c(C)cc1=O
IC50 (Nonstructural protein 1): 12.9 µM (active)

O=C(OC[C@H]1O[C@@H](OC(=O)c2cc(O)c(O)c(OC(=O)c3cc(O)c(O)c(O)c3)c2)[C@H](OC(=O)c2cc(O)c(O)c(OC(=O)c3cc(O)c(O)c(O)c3)c2)[C@@H](OC(=O)c2cc(O)c(O)c(OC(=O)c3cc(O)c(O)c(O)c3)c2)[C@@H]1OC(=O)c1cc(O)c(O)c(OC(=O)c2cc(O)c(O)c(O)c2)c1)c1cc(O)c(O)c(OC(=O)c2cc(O)c(O)c(O)c2)c1 [TANNIC ACID]
IC50 (Large T antigen): < 0.16 µM (active)
